Reference: patent US20140024527A1, “HERBICIDAL PYRAZINONES” (E I DU DE NEMOURS AND COMPANY, priority 2011, published 2014)

What was measured:
Format in all cases: in vivo
[1] = test system: morningglory (Ipomoea spp.); assay: Test A postemergence; settings: 0 to 100 scale, 0 no effect, 100 complete control, approx. 10 days
Excerpt: (§1) Seeds of barnyardgrass (Echinochloa crus-galli), large crabgrass (Digitaria sanguinalis), giant foxtail (Setaria faberii), morningglory (Ipomoea spp.), pigweed (Amaranthus retroflexus), velvetleaf (Abutilon theophrasti), wheat (Triticum aestivum) and corn (Zea mays) were planted into a blend of loam soil and sand and treated preemergence with a directed soil spray using test chemicals formulated in a non-phytotoxic solvent mixture which included a surfactant. At the same time these species were also treated with postemergence applications of test compounds formulated in the same manner. Plants ranged in height from 2 to 10 cm and were in the one- to two-leaf stage for the postemergence treatments. Treated plants and untreated controls were maintained in a greenhouse for approximately 10 days, after which time all treated plants were compared to untreated controls and visually evaluated for injury. Plant response ratings, summarized in Table A, are based on a 0 to 100 scale where 0 is no effect and 100 is complete control.

[2] = test system: giant foxtail (Setaria faberii); assay: Test A postemergence; settings: 0 to 100 scale, 0 no effect, 100 complete control, approx. 10 days
Excerpt: as §1

[3] = test system: corn (Zea mays); assay: Test A postemergence; settings: 0 to 100 scale, 0 no effect, 100 complete control, approx. 10 days
Excerpt: as §1

[4] = test system: barnyardgrass (Echinochloa crus-galli); assay: Test A postemergence; settings: 0 to 100 scale, 0 no effect, 100 complete control, approx. 10 days
Excerpt: as §1

[5] = test system: large crabgrass (Digitaria sanguinalis); assay: Test A postemergence; settings: 0 to 100 scale, 0 no effect, 100 complete control, approx. 10 days
Excerpt: as §1

[6] = test system: pigweed (Amaranthus retroflexus); assay: Test A postemergence; settings: 0 to 100 scale, 0 no effect, 100 complete control, approx. 10 days
Excerpt: as §1

[7] = test system: wheat (Triticum aestivum); assay: Test A postemergence; settings: 0 to 100 scale, 0 no effect, 100 complete control, approx. 10 days
Excerpt: as §1

[8] = test system: velvetleaf (Abutilon theophrasti); assay: Test A postemergence; settings: 0 to 100 scale, 0 no effect, 100 complete control, approx. 10 days
Excerpt: as §1

[9] = test system: morningglory (Ipomoea spp.); assay: Test A preemergence; settings: 0 to 100 scale, 0 no effect, 100 complete control, approx. 10 days
Excerpt: as §1

[10] = test system: giant foxtail (Setaria faberii); assay: Test A preemergence; settings: 0 to 100 scale, 0 no effect, 100 complete control, approx. 10 days
Excerpt: as §1

[11] = test system: corn (Zea mays); assay: Test A preemergence; settings: 0 to 100 scale, 0 no effect, 100 complete control, approx. 10 days
Excerpt: as §1

[12] = test system: barnyardgrass (Echinochloa crus-galli); assay: Test A preemergence; settings: 0 to 100 scale, 0 no effect, 100 complete control, approx. 10 days
Excerpt: as §1

[13] = test system: large crabgrass (Digitaria sanguinalis); assay: Test A preemergence; settings: 0 to 100 scale, 0 no effect, 100 complete control, approx. 10 days
Excerpt: as §1

[14] = test system: pigweed (Amaranthus retroflexus); assay: Test A preemergence; settings: 0 to 100 scale, 0 no effect, 100 complete control, approx. 10 days
Excerpt: as §1

[15] = test system: wheat (Triticum aestivum); assay: Test A preemergence; settings: 0 to 100 scale, 0 no effect, 100 complete control, approx. 10 days
Excerpt: as §1

[16] = test system: velvetleaf (Abutilon theophrasti); assay: Test A preemergence; settings: 0 to 100 scale, 0 no effect, 100 complete control, approx. 10 days
Excerpt: as §1

[17] = test system: rice (Oryza sativa); assay: Test B flooded paddy test; settings: Flood, scale 0 to 100
Excerpt: (§2) Plant species in the flooded paddy test consisted of rice (Oryza sativa), umbrella sedge (Cyperus difformis), ducksalad (Heteranthera limosa) and barnyardgrass (Echinochloa crus-galli) grown to the 2-leaf stage for testing. At time of treatment, test pots were flooded to 3 cm above the soil surface, treated by application of test compounds directly to the paddy water, and then maintained at that water depth for the duration of the test. Treated plants and controls were maintained in a greenhouse for 13 to 15 days, after which time all species were compared to controls and visually evaluated. Plant response ratings, summarized in Table B, are based on a scale of 0 to 100 where 0 is no effect and 100 is complete control. A dash (-) response means no test result.

[18] = test system: ducksalad (Heteranthera limosa); assay: Test B flooded paddy test; settings: Flood, scale 0 to 100
Excerpt: as §2

[19] = test system: barnyardgrass (Echinochloa crus-galli); assay: Test B flooded paddy test; settings: Flood
Excerpt: as §2

[20] = test system: umbrella sedge (Cyperus difformis); assay: Test B flooded paddy test; settings: Flood, scale 0 to 100
Excerpt: as §2

[21] = 250 g ai/ha, scale 0 to 100 (0 no effect, 100 complete control)

With `COCCCn1c(-c2cc(F)cc(F)c2)c(Cl)nc(C(=O)C2=C(O)CCCC2=O)c1=O` [Compound 8] the “Plant response rating, Morningglory” value ([1]; 31 g ai/ha) was 0, the “Plant response rating, Morningglory” value ([1]; 125 g ai/ha) was 50 and the “Plant response rating, Foxtail, Giant” value ([2]; 31 g ai/ha) was 0. For the same molecule, the “Plant response rating, Foxtail, Giant” value ([2]; 125 g ai/ha) was 10, the “Plant response rating, Corn” value ([3]; 31 g ai/ha) was 0 and the “Plant response rating, Corn” value ([3]; 125 g ai/ha) was 0. The “Plant response rating, Barnyardgrass” value ([4]; 31 g ai/ha) was 0, the “Plant response rating, Barnyardgrass” value ([4]; 125 g ai/ha) was 10 and the “Plant response rating, Crabgrass, Large” value ([5]; 31 g ai/ha) was 0. For the same molecule, the “Plant response rating, Crabgrass, Large” value ([5]; 125 g ai/ha) was 30, the “Plant response rating, Pigweed” value ([6]; 31 g ai/ha) was 20 and the “Plant response rating, Pigweed” value ([6]; 125 g ai/ha) was 40. For the same molecule, the “Plant response rating, Wheat” value ([7]; 31 g ai/ha) was 0, the “Plant response rating, Wheat” value ([7]; 125 g ai/ha) was 0 and the “Plant response rating, Velvetleaf” value ([8]; 31 g ai/ha) was 10. For the same molecule, the “Plant response rating, Velvetleaf” value ([8]; 125 g ai/ha) was 50, the “Plant response rating, Morningglory” value ([9]; 31 g ai/ha) was 0 and the “Plant response rating, Morningglory” value ([9]; 125 g ai/ha) was 10. For the same molecule, the “Plant response rating, Foxtail, Giant” value ([10]; 31 g ai/ha) was 0, the “Plant response rating, Foxtail, Giant” value ([10]; 125 g ai/ha) was 0 and the “Plant response rating, Corn” value ([11]; 31 g ai/ha) was 0. For the same molecule, the “Plant response rating, Corn” value ([11]; 125 g ai/ha) was 0, the “Plant response rating, Barnyardgrass” value ([12]; 31 g ai/ha) was 0 and the “Plant response rating, Barnyardgrass” value ([12]; 125 g ai/ha) was 10. The “Plant response rating, Crabgrass, Large” value ([13]; 31 g ai/ha) was 20, the “Plant response rating, Crabgrass, Large” value ([13]; 125 g ai/ha) was 40 and the “Plant response rating, Pigweed” value ([14]; 31 g ai/ha) was 0. For the same molecule, the “Plant response rating, Pigweed” value ([14]; 125 g ai/ha) was 10, the “Plant response rating, Wheat” value ([15]; 31 g ai/ha) was 0 and the “Plant response rating, Wheat” value ([15]; 125 g ai/ha) was 0. The “Plant response rating, Velvetleaf” value ([16]; 31 g ai/ha) was 0, the “Plant response rating, Velvetleaf” value ([16]; 125 g ai/ha) was 0 and the “Plant response rating, Rice” value ([17]; 31 g ai/ha) was 0. For the same molecule, the “Plant response rating, Rice” value ([17]; 62 g ai/ha) was 0, the “Plant response rating, Rice” value ([17]; 125 g ai/ha) was 0 and the “Plant response rating, Rice” value ([17]; 250 g ai/ha) was 25. For the same molecule, the “Plant response rating, Ducksalad” value ([18]; 31 g ai/ha) was 0, the “Plant response rating, Ducksalad” value ([18]; 62 g ai/ha) was 0 and the “Plant response rating, Ducksalad” value ([18]; 125 g ai/ha) was 30. The “Plant response rating, Ducksalad” value ([18]; 250 g ai/ha) was 80, the “Plant response rating, Barnyardgrass” value ([19]; 31 g ai/ha, scale 0 to 100) was 0 and the “Plant response rating, Barnyardgrass” value ([19]; 62 g ai/ha, scale 0 to 100) was 0. The “Plant response rating, Barnyardgrass” value ([19]; 125 g ai/ha, scale 0 to 100) was 0, the “Plant response rating, Barnyardgrass” value [19, 21] was 40 and the “Plant response rating, Sedge, Umbrella” value ([20]; 31 g ai/ha) was 0. For the same molecule, the “Plant response rating, Sedge, Umbrella” value ([20]; 62 g ai/ha) was 40, the “Plant response rating, Sedge, Umbrella” value ([20]; 125 g ai/ha) was 40 and the “Plant response rating, Sedge, Umbrella” value ([20]; 250 g ai/ha) was 75.

For `CCCCn1c(-c2ccccc2)cnc(C(=O)C2=C(O)CCCC2=O)c1=O` [Compound 1, 1-butyl-3-[(2-hydroxy-6-oxo-1-cyclohexen-1-yl)carbonyl]-6-phenyl-2(1H)-pyrazinone], the “Plant response rating, Morningglory” value ([1]; 125 g ai/ha) was 40, the “Plant response rating, Morningglory” value ([1]; 500 g ai/ha) was 100 and the “Plant response rating, Foxtail, Giant” value ([2]; 125 g ai/ha) was 10. For the same molecule, the “Plant response rating, Foxtail, Giant” value ([2]; 500 g ai/ha) was 40, the “Plant response rating, Corn” value ([3]; 125 g ai/ha) was 0 and the “Plant response rating, Corn” value ([3]; 500 g ai/ha) was 10. For the same molecule, the “Plant response rating, Barnyardgrass” value ([4]; 125 g ai/ha) was 10, the “Plant response rating, Barnyardgrass” value ([4]; 500 g ai/ha) was 80 and the “Plant response rating, Crabgrass, Large” value ([5]; 125 g ai/ha) was 10. For the same molecule, the “Plant response rating, Crabgrass, Large” value ([5]; 500 g ai/ha) was 50, the “Plant response rating, Pigweed” value ([6]; 125 g ai/ha) was 60 and the “Plant response rating, Pigweed” value ([6]; 500 g ai/ha) was 100. The “Plant response rating, Wheat” value ([7]; 125 g ai/ha) was 0, the “Plant response rating, Wheat” value ([7]; 500 g ai/ha) was 0 and the “Plant response rating, Velvetleaf” value ([8]; 125 g ai/ha) was 100. For the same molecule, the “Plant response rating, Velvetleaf” value ([8]; 500 g ai/ha) was 100, the “Plant response rating, Morningglory” value ([9]; 125 g ai/ha) was 0 and the “Plant response rating, Morningglory” value ([9]; 500 g ai/ha) was 70. The “Plant response rating, Foxtail, Giant” value ([10]; 125 g ai/ha) was 0, the “Plant response rating, Foxtail, Giant” value ([10]; 500 g ai/ha) was 30 and the “Plant response rating, Corn” value ([11]; 125 g ai/ha) was 0. For the same molecule, the “Plant response rating, Corn” value ([11]; 500 g ai/ha) was 0, the “Plant response rating, Barnyardgrass” value ([12]; 125 g ai/ha) was 0 and the “Plant response rating, Barnyardgrass” value ([12]; 500 g ai/ha) was 80. For the same molecule, the “Plant response rating, Crabgrass, Large” value ([13]; 125 g ai/ha) was 10, the “Plant response rating, Crabgrass, Large” value ([13]; 500 g ai/ha) was 40 and the “Plant response rating, Pigweed” value ([14]; 125 g ai/ha) was 60. For the same molecule, the “Plant response rating, Pigweed” value ([14]; 500 g ai/ha) was 100, the “Plant response rating, Wheat” value ([15]; 125 g ai/ha) was 0 and the “Plant response rating, Wheat” value ([15]; 500 g ai/ha) was 0. For the same molecule, the “Plant response rating, Velvetleaf” value ([16]; 125 g ai/ha) was 50, the “Plant response rating, Velvetleaf” value ([16]; 500 g ai/ha) was 100 and the “Plant response rating, Rice” value ([17]; 62 g ai/ha) was 70. The “Plant response rating, Rice” value ([17]; 250 g ai/ha) was 85, the “Plant response rating, Ducksalad” value ([18]; 62 g ai/ha) was 60 and the “Plant response rating, Ducksalad” value ([18]; 250 g ai/ha) was 95. For the same molecule, the “Plant response rating, Barnyardgrass” value ([19]; 62 g ai/ha, scale 0 to 100) was 60, the “Plant response rating, Barnyardgrass” value [19, 21] was 80 and the “Plant response rating, Sedge, Umbrella” value ([20]; 62 g ai/ha) was 70. For the same molecule, the “Plant response rating, Sedge, Umbrella” value ([20]; 250 g ai/ha) was 95.
